Data reported in the supplement of paper PMC8671470.
Structures can show the parent of a compound that is named as a salt.

Assays:
Settings in all cases: 72 h
[1] = test system: myeloid leukemia patient primary cells Pat.8; assay: area under dose-response curve (viability, 1 nM-10 uM) (fraction (0-1)); higher = more sensitive
Experimental: (§1)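 AUC (0–1, higher = more sensitive) of the 5-point dose–response (1 nM–10 µM, 72 h, CellTiter-Glo) in primary AML/CML patient mononuclear cells. 0.030103 is the floor for inactive compounds.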

[2] = test system: myeloid leukemia patient primary cells Pat.4; assay: as above
Experimental: as §1

[3] = test system: myeloid leukemia patient primary cells Pat.1; assay: as above
Experimental: as §1

[4] = test system: myeloid leukemia patient primary cells Pat.12; assay: as above
Experimental: as §1

[5] = test system: myeloid leukemia patient primary cells Pat.2; assay: as above
Experimental: as §1

[6] = test system: myeloid leukemia patient primary cells Pat.3; assay: as above
Experimental: as §1

[7] = test system: myeloid leukemia patient primary cells Pat.14; assay: as above
Experimental: as §1

[8] = test system: myeloid leukemia patient primary cells Pat.9; assay: as above
Experimental: as §1

[9] = test system: myeloid leukemia patient primary cells Pat.7; assay: as above
Experimental: as §1

[10] = test system: myeloid leukemia patient primary cells Pat.10; assay: as above
Experimental: as §1

[11] = test system: myeloid leukemia patient primary cells Pat.13; assay: as above
Experimental: as §1

[12] = test system: myeloid leukemia patient primary cells Pat.11; assay: as above
Experimental: as §1

[13] = test system: myeloid leukemia patient primary cells Pat.15; assay: as above
Experimental: as §1

[14] = test system: myeloid leukemia patient primary cells Pat.6; assay: as above
Experimental: as §1

[15] = test system: myeloid leukemia patient primary cells Pat.5; assay: as above
Experimental: as §1

HL-60 = assay: cell viability (% survival relative to DMSO control); higher = less cytotoxic
Experimental: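 8x8 drug-combination matrices (0-5000 nM; rosiglitazone and lestaurtinib 0-1000 nM) were run in HL-60 cells for 72 h with a CellTiter-Glo read-out. Survival is normalised to DMSO and 10 µM bortezomib and clipped at 100%. Bliss synergy was analysed in SynergyFinder.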

Cc1c2c(=O)n(-c3ccccc3Cl)[nH]c2cc(=O)n1Cc1ccccn1
Settings	area under dose-response curve
[1]	< 0.0301
[2]	< 0.0301
[3]	< 0.0301
[4]	< 0.0301
[5]	< 0.0301
[6]	< 0.0301
[7]	< 0.0301
[8]	< 0.0301
[9]	< 0.0301
[10]	0.0358
[11]	< 0.0301
[12]	< 0.0301
[13]	< 0.0301
[14]	< 0.0301

C=CCN(C)CCCCCCOc1ccc(C(=O)c2ccc(Br)cc2)c(F)c1.O=C(O)/C=C/C(=O)O [Ro 48-8071 fumarate]
Settings	area under dose-response curve
[1]	0.0337
[2]	0.0305
[3]	0.109
[5]	0.0431
[6]	0.576
[7]	0.0802
[8]	0.13
[9]	0.217
[10]	0.146
[11]	0.0673
[12]	0.0457
[13]	< 0.0301
[14]	0.0624
[15]	0.146

CC(C)(C)c1ccc(S(=O)(=O)NCc2ccc(C(=O)Nc3cccnc3)cc2)cc1 [STF-31]
Settings	area under dose-response curve
[1]	0.433
[2]	0.567
[3]	0.267
[4]	0.366
[5]	0.367
[6]	0.745
[7]	0.653
[8]	0.8
[9]	0.66
[10]	0.449
[11]	0.358
[12]	0.368
[13]	0.375
[14]	0.357
[15]	0.896

CN(CCOc1ccc(Cc2sc(O)nc2O)cc1)c1ccccn1 [Rosiglitazone] + CC(C)(Cc1ccccc1)NCC(O)c1ccc(O)c(NS(C)(=O)=O)c1 [Zinterol hydrochloride]
cell viability [%], HL-60
Settings	drug1 concentration 1 nM	drug1 concentration 5 nM	drug1 concentration 10 nM	drug1 concentration 50 nM	drug1 concentration 100 nM	drug1 concentration 500 nM	drug1 concentration 1000 nM
drug2 concentration 5 nM	87.9	41.2	> 100	97.5	> 100	> 100	> 100
drug2 concentration 10 nM	63.4	95.3	> 100	> 100	62.7	> 100	> 100
drug2 concentration 50 nM	83.3	83	83.9	> 100	58.8	> 100	92.8
drug2 concentration 100 nM	> 100	92.2	90.1	> 100	80.5	78.9	> 100
drug2 concentration 500 nM	90.1	> 100	> 100	95.3	> 100	72.1	80.8
drug2 concentration 1000 nM	40.6	> 100	> 100	> 100	> 100	60.1	> 100
drug2 concentration 5000 nM	59.8	94.4	> 100	> 100	> 100	> 100	97.7

Cn1cc(-c2ccncc2)c(-c2ccc(OCc3ccc4ccccc4n3)cc2)n1
Settings	area under dose-response curve
[1]	< 0.0301
[2]	< 0.0301
[3]	< 0.0301
[4]	< 0.0301
[5]	< 0.0301
[6]	0.219
[7]	0.183
[8]	0.694
[9]	0.309
[10]	0.163
[11]	0.067
[12]	< 0.0301
[13]	< 0.0301
[15]	0.938
